Patent US20220298213A1, “IN VIVO ENGINEERED CEREBLON PROTEIN” (Vividion Therapeutics, Inc., priority 2018, published 2022)
Like-named read-outs stand apart in the source and are kept apart here.

What was measured:
Experiment in all cases: Inhibition of iodoacetamide probe labeling of CRBN cysteines, cell lysate (Table 3A)
Format in all cases: binding
CRBN Cys188 = target: T1, CRBN Cys188 (Homo sapiens, UniProt Q96SW2); conditions: for inhibition at 125 µM: 125 micromolar
T1 construct: endogenous in cells
Procedure: (§1) “X@Y” means that x % inhibition of iodoacetamide probe labeling was observed by treatment of cell lysate with the give compound in each row of the table for 1 h at a concentration of y micromolar. There was consistently high inhibition at C318 in addition to C287, which can be attributed to an allosteric inhibition.

CRBN Cys205 = target: T2, CRBN Cys205 (Homo sapiens, UniProt Q96SW2); conditions: for inhibition at 500 µM: 500 micromolar; for inhibition at 500 µM / inhibition at 31.2 µM / inhibition at 125 µM: read-out: % inhibition of iodoacetamide probe labeling, Cys205
T2 construct: endogenous in cells
Procedure: as §1

CRBN Cys219 = target: T3, CRBN Cys219 (Homo sapiens, UniProt Q96SW2); conditions: for inhibition at 500 µM: 500 micromolar
T3 construct: endogenous in cells
Procedure: as §1

CRBN Cys234 = target: T4, CRBN Cys234 (Homo sapiens, UniProt Q96SW2); conditions: for inhibition at 500 µM: 500 micromolar; for inhibition at 500 µM / inhibition at 31.2 µM / inhibition at 125 µM: read-out: % inhibition of iodoacetamide probe labeling, Cys234
T4 construct: endogenous in cells
Procedure: as §1

CRBN Cys366 = target: T5, CRBN Cys366 (Homo sapiens, UniProt Q96SW2)
T5 construct: endogenous in cells
Procedure: as §1

CRBN Cys287 = target: T6, CRBN Cys287 (Homo sapiens, UniProt Q96SW2); conditions: for inhibition at 7.8 µM: 7.8 micromolar; for inhibition at 500 µM: 500 micromolar
T6 construct: endogenous in cells
Procedure: as §1

CRBN Cys318 = target: T7, CRBN Cys318 (Homo sapiens, UniProt Q96SW2); conditions: for inhibition at 7.8 µM: 7.8 micromolar; for inhibition at 500 µM: 500 micromolar
T7 construct: endogenous in cells
Procedure: as §1

[1] = cell lysate, 1 h, read-out: % inhibition of iodoacetamide probe labeling, Cys219
[2] = read-out: % inhibition of iodoacetamide probe labeling, Cys219
[3] = cell lysate, 1 h, read-out: % inhibition of iodoacetamide probe labeling, Cys287
[4] = read-out: % inhibition of iodoacetamide probe labeling, Cys287
[5] = cell lysate, 1 h, read-out: % inhibition of iodoacetamide probe labeling, Cys318
[6] = 2.0 micromolar, cell lysate, 1 h
[7] = 7.8 micromolar, cell lysate, 1 h
[8] = 31.2 micromolar, cell lysate, 1 h
[9] = 125 micromolar, cell lysate, 1 h
[10] = 0.12 micromolar, cell lysate, 1 h

T1 sequence (Q96SW2 whole entry): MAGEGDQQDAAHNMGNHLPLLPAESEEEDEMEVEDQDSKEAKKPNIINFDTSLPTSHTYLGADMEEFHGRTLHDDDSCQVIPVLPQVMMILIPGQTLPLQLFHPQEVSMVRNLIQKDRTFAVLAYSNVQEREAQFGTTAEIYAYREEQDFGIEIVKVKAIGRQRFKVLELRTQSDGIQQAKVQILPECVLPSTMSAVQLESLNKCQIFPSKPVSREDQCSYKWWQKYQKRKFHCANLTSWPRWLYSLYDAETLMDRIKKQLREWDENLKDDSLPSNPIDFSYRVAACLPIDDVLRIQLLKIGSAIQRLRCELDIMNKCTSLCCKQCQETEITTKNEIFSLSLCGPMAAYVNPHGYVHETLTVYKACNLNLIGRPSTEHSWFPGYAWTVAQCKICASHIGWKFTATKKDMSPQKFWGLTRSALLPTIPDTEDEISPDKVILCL
T3 sequence (Q96SW2 whole entry): as above
T4 sequence (Q96SW2 whole entry): as above
T2 sequence (Q96SW2 whole entry): as above
T6 sequence (Q96SW2 whole entry): as above
T7 sequence (Q96SW2 whole entry): as above
T5 sequence (Q96SW2 whole entry): as above

## C=CC(=O)N1CC(Oc2ccc(Cl)cc2)C1 [Example A3]
CRBN Cys188; cell lysate, 1 h
  inhibition at 125 µM: 5%
CRBN Cys188; 500 micromolar, cell lysate, 1 h
  inhibition at 500 µM: 3%
CRBN Cys205; cell lysate, 1 h
  inhibition at 500 µM: 15%
CRBN Cys205
  inhibition at 31.2 µM: 7%
  inhibition at 125 µM: 21%
CRBN Cys219; [1]
  inhibition at 500 µM: 40%
CRBN Cys219; [2]
  inhibition at 31.2 µM: 19%
  inhibition at 125 µM: 8%
CRBN Cys234; cell lysate, 1 h
  inhibition at 500 µM: 31%
CRBN Cys234
  inhibition at 31.2 µM: 6%
  inhibition at 125 µM: 19%
CRBN Cys366; read-out: % inhibition of iodoacetamide probe labeling, Cys366
  inhibition at 125 µM: -6%
CRBN Cys287; cell lysate, 1 h
  inhibition at 7.8 µM: 12%
CRBN Cys287; [3]
  inhibition at 500 µM: 96%
CRBN Cys287; [4]
  inhibition at 31.2 µM: 51%
  inhibition at 125 µM: 80%
CRBN Cys318; cell lysate, 1 h
  inhibition at 7.8 µM: 21%
CRBN Cys318; [5]
  inhibition at 500 µM: 85%
CRBN Cys318; read-out: % inhibition of iodoacetamide probe labeling, Cys318, 31.2 micromolar, cell lysate, 1 h
  inhibition at 31.2 µM: 35%
CRBN Cys318; read-out: % inhibition of iodoacetamide probe labeling, Cys318, 125 micromolar, cell lysate, 1 h
  inhibition at 125 µM: 64%

## COc1ccccc1-c1cc(OC2CCN(C(=O)/C(C#N)=C/C(C)C)CC2)cc(C(N)=O)c1 [Example A5]
CRBN Cys188; [6]
  inhibition at 2 µM: 22%
CRBN Cys188; [7]
  inhibition at 7.8 µM: 13%
CRBN Cys188; [8]
  inhibition at 31.2 µM: 13%
CRBN Cys188; cell lysate, 1 h
  inhibition at 125 µM: 7%
CRBN Cys188; read-out: % inhibition of iodoacetamide probe labeling, Cys188
  inhibition at 0.49 µM: 17%
CRBN Cys205; [6]
  inhibition at 2 µM: 19%
CRBN Cys205; [7]
  inhibition at 7.8 µM: 36%
CRBN Cys205; [8]
  inhibition at 31.2 µM: 29%
CRBN Cys205; [9]
  inhibition at 125 µM: 37%
CRBN Cys205; cell lysate, 1 h
  inhibition at 500 µM: 31%
CRBN Cys219; 0.49 micromolar, cell lysate, 1 h
  inhibition at 0.49 µM: 17%
CRBN Cys219; [7]
  inhibition at 7.8 µM: 13%
CRBN Cys219; 125 micromolar, cell lysate, 1 h, read-out: % inhibition of iodoacetamide probe labeling, Cys219
  inhibition at 125 µM: 25%
CRBN Cys219; [1]
  inhibition at 500 µM: 13%
CRBN Cys219; [2]
  inhibition at 2 µM: 22%
CRBN Cys234; [6]
  inhibition at 2 µM: 19%
CRBN Cys234; [7]
  inhibition at 7.8 µM: 35%
CRBN Cys234; [8]
  inhibition at 31.2 µM: 37%
CRBN Cys234; [9]
  inhibition at 125 µM: 60%
CRBN Cys234; cell lysate, 1 h
  inhibition at 500 µM: 25%
CRBN Cys366; [7]
  inhibition at 7.8 µM: -22%
CRBN Cys287; [10]
  inhibition at 0.12 µM: 70%
CRBN Cys287; 2.0 micromolar, cell lysate, 1 h, read-out: % inhibition of iodoacetamide probe labeling, Cys287
  inhibition at 2 µM: 93%
CRBN Cys287; cell lysate, 1 h
  inhibition at 7.8 µM: 96%
CRBN Cys287; 31.2 micromolar, cell lysate, 1 h, read-out: % inhibition of iodoacetamide probe labeling, Cys287
  inhibition at 31.2 µM: 98%
CRBN Cys287; 125 micromolar, cell lysate, 1 h, read-out: % inhibition of iodoacetamide probe labeling, Cys287
  inhibition at 125 µM: 99%
CRBN Cys287; [3]
  inhibition at 500 µM: 99%
CRBN Cys287; [4]
  inhibition at 0.49 µM: 83%
CRBN Cys318; [10]
  inhibition at 0.12 µM: 77%
CRBN Cys318; [6]
  inhibition at 2 µM: 85%
CRBN Cys318; cell lysate, 1 h
  inhibition at 7.8 µM: 93%
CRBN Cys318; 31.2 micromolar, cell lysate, 1 h, read-out: % inhibition of iodoacetamide probe labeling, Cys318
  inhibition at 31.2 µM: 94%
CRBN Cys318; 125 micromolar, cell lysate, 1 h, read-out: % inhibition of iodoacetamide probe labeling, Cys318
  inhibition at 125 µM: 95%
CRBN Cys318; [5]
  inhibition at 500 µM: 96%
CRBN Cys318; read-out: % inhibition of iodoacetamide probe labeling, Cys318, 0.49 micromolar, cell lysate, 1 h
  inhibition at 0.49 µM: 76%
